# Source: paper PMC12867150, “A fungi-derived cyclic peptide enhances Th9-mediated antitumor immunity by targeting ZAP70 and SREBP1” (The Journal of Clinical Investigation, 2025)
# Values joined by “and” are separate entries in the source; they are usually repeats but may differ in a detail not shown here. Identical values can stand only once.
# What was measured:
# dendritic cells (DCs) = assay: Flow cytometry of dendritic cells (S1J-K); format: in vivo, mouse; design: key to Frequencies of DC in Spleen / Frequencies of DC in LN: % of cells; conditions: for Frequencies of DC in LN: Supplemental Figure 1K left; for number of DC in LN: Supplemental Figure 1K right; for DC (CD11c) gate number: representative flow plot; for Frequencies of DC in Spleen: Supplemental Figure 1J left; for number of DC in Spleen: Supplemental Figure 1J right
# Method: C57BL/6 mice were subcutaneously injected with 5 × 10^5 B16-OVA melanoma cells. Five days after tumor implantation, mice received an intravenous infusion of 2 × 10^6 in vitro–differentiated Th9 cells (cultured for 5 days), which were derived from OT-II CD45.1 donor mice, accompanied by 4 × 10^5 OVA peptide–pulsed DCs via the tail vein. To enhance T cell engraftment and facilitate lymphodepletion, a single intraperitoneal injection of cyclophosphamide (200 mg/kg, Sigma, catalog C0768) was administered 1 day prior to T cell transfer. Mice were euthanized at designated time points for the collection and analysis of spleens, tumor-draining lymph nodes, and tumor tissues.
# Details regarding staining panels (human and mouse), reagents (including clones and catalog numbers), acquisition settings, compensation/controls, and analysis procedures are provided in Supplemental Methods. […]
# Figure S1. EpA enhances immune responses. […]
# Representative plots, frequencies, and total numbers of dendritic cells (DCs) in […]
# spleens (J) and LNs (K). […]
# Statistical analysis was performed using two-way ANOVA with Tukey’s post hoc test (A), one-way ANOVA with Tukey’s post hoc test (B) or two-tailed unpaired Student’s t-test (D and G–M). ns, not significant. *p < 0.05, **p < 0.01, ****p < 0.0001.
# (also on this page, place not known: Mouse weight (g) CtrlEpA CtrlEpA CtrlEpA0 I CD45.1+ T cells (%) CtrlEpA CD4+ T cells (%) CtrlEpA CtrlEpA CtrlEpA FSC CD8 CD8 FSC FSC FSC BNumber of CD45.1+ T cells (×103 per mgĎ Number of CD4+ T cells (×104 per mgĎ DC (%)NK cells (%) NK cells (%) DC (%) Number of DC (×103 per mg) Number of NK cells (×105) Number of NK cells (×103 per mg) Number of DC (×105) FSC FSC FSC CD8 CtrlEpA CtrlEpA CtrlEpA CD8+ T cells (%) Number of CD8+ T cells (×104 per mgĎ nsns ns nsns ns 40 IL-6 (pg/ml))
# Th9 cells = assay: IL-9+ Th9 cells with MEK or ERK inhibition (Figure 5H); format: cell-based, mouse; conditions: for IL-9 (flow cytometric quantification): Figure 5H, individual replicates, (n = 5)
# Method: (A) Identification and ranking of EpA-interacting proteins by affinity pulldown and LC-MS/MS, ordered by in silico binding energy predictions. […] (E) Flow-cytometric analysis of phosphorylated ZAP70 in Th9 cells 10 minutes after TCR activation (mean ± SEM, n = 3). (F) Pathway enrichment analysis of RNA-seq data showing MAPK/ERK-related pathways in EpA-treated Th9 cells. (G) Immunoblot analysis of total and phosphorylated MEK1/2 and ERK1/2 in control and EpA-treated Th9 cells. (H–L) Functional consequences of MEK or ERK inhibition in EpA-treated Th9 cells. […] Data in H–K are shown as mean ± SEM (n = 5) and in L as mean ± SEM (n = 3). Statistical significance was determined using 1-way ANOVA followed by Tukey’s test (E, H–L). *P < 0.05, **P < 0.01, ***P < 0.001, ****P < 0.0001.
# T cell polarization was initiated under plate-bound anti-CD3 (2 μg/mL, clone 17A2, BioXCell, catalog BE0002) and soluble anti-CD28 (1 μg/mL, clone 37.51, BioXCell, catalog BE0015-1) stimulation, with the addition of cytokines and neutralizing antibodies specific to each subset. For Th9 cells, these included IL-4 (10 ng/mL, Peprotech, catalog 400-04), TGF-β (1 ng/mL, EPOTO Biotech, catalog HF-2021), anti–IL-12 (5 μg/mL, clone C17.8, BioXCell, catalog BE0051), and anti–IFN-γ (10 μg/mL, clone XMG1.2, BioXCell, catalog BE0055); for Th1 cells, these included IL-12 (10 ng/mL, GenScript, catalog Z03211-50) and anti–IL-4 (5 μg/mL, clone 11B11, BioXCell, catalog BE0045); for Th2 cells, these included IL-4 (50 ng/mL), anti–IFN-γ (20 μg /mL), anti–IL-12 (5 μg/mL), Th17 cells: IL-6 (20 ng/mL, EPOTO Biotech, catalog MF-1006), TGF-β (1 ng/mL), IL-1β (10 ng/mL, Peprotech, catalog AF-211-11B), anti–IFN-γ (10 μg/mL), anti–IL-12 (5 μg/mL), and anti–IL-4 (5 μg/mL); and for Tregs, these included TGF-β (3 ng/mL). After 3 days of initial culture, cells were either collected for downstream assays or continued in extended culture with refreshed cytokines to maintain lineage commitment.
# The following pharmacological inhibitors were used at the indicated final concentrations: trametinib (MEK1/2 inhibitor; Selleck, catalog S4484) at 10 nM; temuterkib (ERK1/2 inhibitor; MCE, catalog HY-101494) at 100 nM; and fatostatin hydrobromide (SREBP inhibitor; MCE, catalog HY-14452A) at 5 μM. Dead cells were detected using Fixable Viability Dye eFluor 780 (eBioscience, catalog 65-0865).
substance,measurement,setting,value
anteiso-C15 Leu7 surfactin [EpA],Frequencies of DC in LN,"dendritic cells (DCs); LN, replicate 1",2.19
same,Frequencies of DC in LN,"dendritic cells (DCs); LN, replicate 2",1.85
same,Frequencies of DC in LN,"dendritic cells (DCs); LN, replicate 3",1.69
same,Frequencies of DC in LN,"dendritic cells (DCs); LN, replicate 4",1.46
same,number of DC in LN,"dendritic cells (DCs); LN, replicate 1",3234.29
same,number of DC in LN,"dendritic cells (DCs); LN, replicate 2",2390.2
same,number of DC in LN,"dendritic cells (DCs); LN, replicate 3",1334.11
same,number of DC in LN,"dendritic cells (DCs); LN, replicate 4",1093.89
same,DC (CD11c) gate number,"dendritic cells (DCs); LN, Figure S1K",2.19
same,Frequencies of DC in Spleen,"dendritic cells (DCs); Spleen, replicate 1",1.58
same,Frequencies of DC in Spleen,"dendritic cells (DCs); Spleen, replicate 2",1.85
same,Frequencies of DC in Spleen,"dendritic cells (DCs); Spleen, replicate 3",1.61
same,Frequencies of DC in Spleen,"dendritic cells (DCs); Spleen, replicate 4",3.57
same,number of DC in Spleen,"dendritic cells (DCs); Spleen, replicate 1",143005
same,number of DC in Spleen,"dendritic cells (DCs); Spleen, replicate 2",161881
same,number of DC in Spleen,"dendritic cells (DCs); Spleen, replicate 3",145729
same,number of DC in Spleen,"dendritic cells (DCs); Spleen, replicate 4",275281
same,DC (CD11c) gate number,"dendritic cells (DCs); Spleen, Figure S1J",1.85
same,DC frequencies and total counts,"dendritic cells (DCs); spleens and lymph nodes, result in words",significantly elevated
same,IL-9 (flow cytometric quantification),Th9 cells; EpA + ERKin combination,5.8 and 5.06 and 4.72 and 7.22 and 6.36
same,IL-9 (flow cytometric quantification),Th9 cells; EpA + MEKin combination,0.49 and 3.03 and 0.46 and 0.71 and 0.77
same,IL-9 (flow cytometric quantification),Th9 cells; single agent,50.6 and 51.1 and 72.2 and 66.2 and 42.3
same,IL-9 production,"Th9 cells; trametinib 10 nM, temuterkib 100 nM, result in words",unable to restore it
